According to patent US8865911B2, “Compounds and their use as BACE inhibitors” (Astrazeneca AB, priority 2010, dated 2014):

Test system: sAPPβ release, SH-SY5Y cells
Test: sAPPβ release assay
Type: cell-based
Details: compounds incubated 17 h, MSD detection
Description: Thaw cells and seed at a conc. of around 10000 cells/well in DMEM/F-12 with Glutamax, 10% FCS and 1% non-essential amino acids to a 384-well tissue culture treated plate, 100 μL cell susp/well. […] The cell medium was removed, followed by addition of 30 μL compound diluted in DMEM/F-12 with Glutamax, 10% FCS, 1% non-essential amino acids and 1% PeSt to a final conc. of 1% DMSO. The compounds were incubated with the cells for 17 h (overnight) at 37° C., 5% CO2. Meso Scale Discovery (MSD) plates were used for the detection of sAPPβ release. MSD sAPPβ plates were blocked in 1% BSA in Tris wash buffer (40 μL/well) for 1 h on shake at r.t. and washed 1 time in Tris wash buffer (40 μL/well). 20 μL of medium was transferred to the pre-blocked and washed MSD sAPPβ microplates, and the cell plates were further used in an ATP assay to measure cytotoxicity. The MSD plates were incubated with shaking at r.t. for 2 h and the media discarded. 10 μL detection antibody was added (1 nM) per well followed by incubation with shaking at r.t. for 2 h and then discarded. 40 μL Read Buffer was added per well and the plates were read in a SECTOR Imager.

| SMILES | IC50 [nM] | IC50 (listed as 71 Isomer 2) [nM] |
| --- | --- | --- |
| CC1=NC2(CC3(CCCOC3)Oc3ccc(-c4cccc(Cl)c4)cc32)N=C1N (single isomer, unassigned) [Example 46a Isomer 1, 6′-(3-Chlorophenyl)-5-methyl-5″,6″-dihydro-4″H-dispiro[imidazole-2,4′-chromene-2′,3″-pyran]-4-amine] | 419 | – |
| CC1=NC2(CC(C3CCOC(C)(C)C3)Oc3ccc(-c4cccc(Cl)c4)cc32)N=C1N (racemic) [Example 50 Isomeric mixture 2, 6-(3-Chlorophenyl)-2-(2,2-dimethyltetrahydro-2H-pyran-4-yl)-5′-methylspiro[chroman-4,2′-imidazol]-4′-amine] | 17 | – |
| CO[C@H]1CC[C@]2(CC1)Cc1ccc(C#CC(C)(C)C)cc1C21N=C(C)C(N)=N1 (single isomer, unassigned; isomer 1) [Example 20h Isomer 1, (1r,4r)-6′-(3,3-dimethylbut-1-yn-1-yl)-4-methoxy-5″-methyl-3′H-dispiro[cyclohexane-1,2′-indene-1′,2″-imidazol]-4″-amine] | 277 | – |
| CO[C@H]1CC[C@]2(CC1)Cc1ccc(-c3cc(F)cc(C#N)c3)cc1C21N=C(C)C(N)=N1 (single isomer, unassigned; isomer 1) [Example 76 Isomer 1, 3-[(1r,4r)-4″-amino-4-methoxy-5″-methyl-3′H-dispiro[cyclohexane-1,2′-indene-1′,2″-imidazol]-6′-yl]-5-fluorobenzonitrile] | 1.2 | – |
| CCC1=NC2(N=C1N)c1cc(-c3cccc(C#N)c3)ccc1C[C@]21CC[C@@H](OC)CC1 (single isomer, unassigned) [Example 71 Isomer 2, 3-[(1r,4r)-4″-amino-5″-ethyl-4-methoxy-3′H-dispiro-[cyclohexane-1,2′-indene-1′,2″-imidazol]-6′-yl]benzonitrile] | – | 763 |
